Results: US10227337B2, “Evaluation probe for central nervous system permeability, evaluation method for central nervous system permeability, and screening method using an evaluation probe for central nervous system permeability” (CANON KABUSHIKI KAISHA, priority 2011, dated 2019)

Tested on: not listed separately
Assay: Measurement of fluorescence characteristics of dye compounds
Type: physicochemical
Details: 5-μM solution in DMSO
From the text: 5-μM solutions of Dye compounds 1 to 46 in DMSO were each prepared and measured for its excitation wavelength and fluorescence emission wavelength with an FL4500 fluorescence spectrometer manufactured by Hitachi High-Technologies Corporation.

Structure (SMILES) | Excitation wavelength λex [nm] | Fluorescence wavelength λem [nm]
COc1ccc2cc(N3c4ccc(/C=C5/SC(=S)N(CCC(=O)O)C5=O)cc4C4CCCC43)ccc2c1 (centres unmarked) [Compound 5] | 521 | 646
CCN1c2ccc(/C=C3/SC(=S)N(CCC(=O)O)C3=O)cc2CC1C (centres unmarked) [Compound 7] | 509 | 593
O=C(O)CN1C(=O)/C(=C\c2ccc3c(c2)C2CCCC2N3c2ccccc2)SC1=S (centres unmarked) [Compound 17] | 508 | 604
O=C(O)CN1C(=O)/C(=C\c2cc(Br)c3c(c2)C2CCCC2N3c2ccc(Br)cc2)SC1=S (centres unmarked) [Compound 21] | 476 | 580
CCN1c2ccc(/C=C/C=C3/SC(=S)N(CCC(=O)O)C3=O)cc2C2CCCC21 (centres unmarked) [Compound 11] | 564 | 671
CSc1ccc(N2c3ccc(/C=C4/SC(=S)N(CC(=O)O)C4=O)cc3C3CCCC32)cc1 (centres unmarked) [Compound 15] | 517 | 638
COc1ccc(N2c3ccc(/C=C4/SC(=S)N(CCC(=O)O)C4=O)cc3C3CCCC32)cc1 (centres unmarked) [Compound 2] | 521 | 634
CN1c2ccc(/C=C3/SC(=S)N(CCC(=O)O)C3=O)cc2C2CCCC21 (centres unmarked) [Compound 6] | 517 | 590
CCN1c2ccc(/C=C3/SC(=S)N(CC(=O)O)C3=O)cc2C2CCCC21 (centres unmarked) [Compound 14] | 507 | 585
CCN1c2ccc(/C=C3/SC(=S)N(CC(=O)O)C3=O)cc2CC1C (centres unmarked) [Compound 16] | 510 | 590
CSc1ccc(N2c3ccc(/C=C4/SC(=S)N(CCC(=O)O)C4=O)cc3C3CCCC32)cc1 (centres unmarked) [Compound 12] | 518 | 647
CCCN1c2ccc(/C=C3/SC(=S)N(CCC(=O)O)C3=O)cc2C2CCCC21 (centres unmarked) [Compound 10] | 519 | 592
CCN1c2ccc(/C=C3/SC(=S)N(CCC(=O)O)C3=O)cc2C2CCCC21 (centres unmarked) [Compound 13] | 513 | 587
CCn1c2ccccc2c2cc(/C=C3/SC(=S)N(CCC(=O)O)C3=O)ccc21 [Compound 9] | 452 | 540
O=C(O)CN1C(=O)/C(=C\c2ccc3c(c2)CCN3c2ccccc2)SC1=S [Compound 22] | 505 | 612
CCN1CCc2cc(/C=C3/SC(=S)N(CC(=O)O)C3=O)ccc21 [Compound 19] | 511 | 594
O=C(O)CCN1C(=O)/C(=C\c2ccc3c(c2)C2CCCC2N3Cc2ccccc2)SC1=S (centres unmarked) [Compound 3] | 510 | 584
CCN1CCc2cc(/C=C3/SC(=S)N(CCC(=O)O)C3=O)ccc21 [Compound 8] | 510 | 597
O=C(O)CN1C(=O)/C(=C\c2ccc3c(c2)C2CCCC2N3Cc2ccccc2)SC1=S (centres unmarked) [Compound 20] | 506 | 581
O=C(O)CCN1C(=O)/C(=C\c2ccc3c(c2)C2CCCC2N3c2ccccc2)SC1=S (centres unmarked) [Compound 4] | 502 | 604
O=C(O)CCN1C(=O)/C(=C\c2cc(Br)c3c(c2)C2CCCC2N3c2ccc(Br)cc2)SC1=S (centres unmarked) [Compound 1] | 474 | 590
CSc1cccc(N2c3ccc(/C=C4/SC(=S)N(CC(=O)O)C4=O)cc3C3CCCC32)c1 (centres unmarked) [Compound 18] | 509 | 604

More lines, now with the values ahead:

Excitation wavelength λex [nm] | Fluorescence wavelength λem [nm] | Structure (SMILES)
525 | 610 | CCN1C(=O)/C(=c2\s/c(=C/c3ccc4c(c3)C3CCCC3N4c3ccccc3)c(=O)n2CC(=O)O)SC1=S (centres unmarked) [Compound 29]
541 | 642 | CCN1C(=O)/C(=c2\s/c(=C/c3ccc4c(c3)CCN4CC)c(=O)n2CC(=O)O)SC1=S [Compound 38]
544 | 658 | CCN1C(=O)/C(=c2\s/c(=C/c3ccc4c(c3)C3CCCC3N4c3ccc(SC)cc3)c(=O)n2CC(=O)O)SC1=S (centres unmarked) [Compound 32]
536 | 640 | CCN1C(=O)/C(=c2\s/c(=C/c3ccc4c(c3)CCN4c3ccccc3)c(=O)n2CC(=O)O)SC1=S [Compound 39]
525 | 616 | CCN1C(=O)/C(=c2\s/c(=C/c3cc(Br)c4c(c3)C3CCCC3N4Cc3ccccc3)c(=O)n2CC(=O)O)SC1=S (centres unmarked) [Compound 37]
543 | 649 | CCN1C(=O)/C(=c2\s/c(=C/c3ccc4c(c3)C3CCCC3N4c3ccc4cc(OC)ccc4c3)c(=O)n2CC(=O)O)SC1=S (centres unmarked) [Compound 34]
541 | 640 | CCN1C(=O)/C(=c2\s/c(=C/c3ccc4c(c3)CC(C)N4CC)c(=O)n2CC(=O)O)SC1=S (centres unmarked) [Compound 36]
552 | 668 | CCCCCCCCN1C(=O)/C(=c2\s/c(=C/c3ccc4c(c3)C3CCCC3N4c3ccc(OC)cc3)c(=O)n2CC(=O)OCC)SC1=S (centres unmarked) [Compound 43]
520 | 617 | CCN1C(=O)/C(=c2\s/c(=C/c3cc(Br)c4c(c3)C3CCCC3N4c3ccc(Br)cc3)c(=O)n2CC(=O)O)SC1=S (centres unmarked) [Compound 35]
525 | 646 | COc1ccc2cc(N3c4ccc(/C=C5/SC(=S)N(CC(=O)O)C5=O)cc4C4CCCC43)ccc2c1 (centres unmarked) [Compound 26]
518 | 590 | CCOC(=O)CCN1C(=O)/C(=C\c2ccc3c(c2)C2CCCC2N3CC)SC1=S (centres unmarked) [Compound 27]
548 | 656 | CCCCCN1C(=O)/C(=c2\s/c(=C/c3ccc4c(c3)C3CCCC3N4c3ccc(OC)cc3)c(=O)n2CC(=O)OCC)SC1=S (centres unmarked) [Compound 44]
486 | 578 | O=C(O)CN1C(=O)/C(=C\c2cc(Br)c3c(c2)C2CCCC2N3Cc2ccccc2)SC1=S (centres unmarked) [Compound 24]
518 | 637 | COc1ccc(N2c3ccc(/C=C4/SC(=S)N(CC(=O)O)C4=O)cc3C3CCCC32)cc1 (centres unmarked) [Compound 23]
516 | 585 | CCN1c2ccc(/C=C3/SC(=S)N(CCCCCCCCCCC(=O)O)C3=O)cc2C2CCCC21 (centres unmarked) [Compound 46]
513 | 589 | CCN1c2ccc(/C=C3/SC(=S)N(CCCCCC(=O)O)C3=O)cc2C2CCCC21 (centres unmarked) [Compound 45]
543 | 636 | C=CCN1C(=O)/C(=c2\s/c(=C/c3ccc4c(c3)C3CCCC3N4c3ccccc3)c(=O)n2CC(=O)O)SC1=S (centres unmarked) [Compound 42]
550 | 650 | CCN1C(=O)/C(=c2\s/c(=C/c3ccc4c(c3)C3CCCC3N4c3ccc(OC)cc3)c(=O)n2CC(=O)O)SC1=S (centres unmarked) [Compound 31]
453 | 536 | CCn1c2ccccc2c2cc(/C=C3/SC(=S)N(CC(=O)O)C3=O)ccc21 [Compound 25]
515 | 624 | C=CCN1C(=O)/C(=c2\s/c(=C/c3ccc4c(c3)C3CCCC3N4c3ccc(OC)cc3)c(=O)n2CC(=O)O)SC1=S (centres unmarked) [Compound 41]
536 | 632 | CCN1C(=O)/C(=c2\s/c(=C/c3ccc4c(c3)C3CCCC3N4c3cccc(SC)c3)c(=O)n2CC(=O)O)SC1=S (centres unmarked) [Compound 33]
494 | 551 | CCN1C(=O)/C(=c2\s/c(=C/c3ccc4c(c3)c3ccccc3n4CC)c(=O)n2CC(=O)O)SC1=S [Compound 40]

Tested on: cranial nerve tissue (brain) of juvenile zebrafish
Assay: Example 3: brain fluorescence of juvenile zebrafish exposed to compound (23) probe liquid with or without MK571 and FTC
Type: in vivo
Details: concluded from single versus combined MK571 and FTC
Procedure: A probe liquid 6 was obtained by changing the compound (8) used in the probe liquid 1 of Example 1 to the compound (23). Further, a probe liquid 7 was obtained by adding MK571 and FTC, each at 30 μM, as a transporter inhibitor.
4 mL of the probe liquid 6 and 7 and each of 20 juvenile zebrafish on 7 days post fertilization were each loaded into any well of a 6-well multiplate, and exposure was started. The zebrafish during exposure were each taken out of the well 60 minutes, 180 minutes and 360 minutes after the starting of the exposure, and in accordance with the same operation as in Example 1, fluorescence images of a cranial nerve tissue and a blood vessel on the zebrafish body side were captured and fluorescence intensities in the CNS tissue and the blood vessel were evaluated.

transport by transporters (substrate property) | Structure (SMILES)
transported by both of MRP and BCRP | COc1ccc(N2c3ccc(/C=C4/SC(=S)N(CC(=O)O)C4=O)cc3C3CCCC32)cc1 (centres unmarked) [Compound 23]
